Entries after “also recorded” stand apart in the source; their conditions may differ. Read-outs that look alike come from different tables or passages of the source.
Columns and labels:
[1] = cited from earlier work
[2] = system: murine leukemia virus (MULV); conditions: for mice that died during the treatment period / survival rate at 21 days: 12 mice per group; for mice that died during the treatment period: days 6 and 14; for survival rate at 21 days / post-treatment CD4/CD8 ratio: 72 feet; for survival rate at 21 days: 2 hours daily; for post-treatment CD4/CD8 ratio / post-treatment CD4 count (FACS): 2 hours, versus post-treatment control; for post-treatment CD4/CD8 ratio: six days a week, three weeks; for overall effect relative to control conditions: 72 ft for 2 hours, 6 days per week; for hypocellular medullary sinuses of lymph nodes: H&E histology after three-week treatment; for spleen size / lymph node size: after three-week treatment; for spleen size: N2 and air versus control and oxygen; for lymph node size: area = length times width of cut node; for post-treatment CD4 count (FACS): orbital blood, 72 feet of seawater, six days a week for three weeks; for lymph node architecture: after 21 days of treatment; for physical condition / grooming: versus control and oxygen groups
Method: FIG. 5A represents the cross section of an actual lymph node removed from a mouse that took part in a study of the present method. […] As a result of the observations on divers in Puerto Rico, it was decided to first test this concept in murine leukemia virus-MULV mice exposed to increased pressures of nitrogen at a depth of 72 feet for 2 hours 6 days per week for 3 weeks. […] The murine model, AKR-J strain of mice which are viremic from birth, were used to test the hypotheses. The animal model was chosen because of its striking similarities to human AIDS. […] The mice were separated at random into four groups of 12 mice in each group. Group 1 was control. Group 2 was exposed to air at sea level pressure. Group 3 was exposed to N2 and Group 4 to O2 under the following conditions. The mice were placed in a small (5.88 cubic feet), temperature controlled hyperbaric chamber and compressed with Air, N2+6.5% O2 or 100% O2. Groups were taken separately to a pressure of 72 feet of seawater. The animals reached maximum treatment pressure in 6-7 minutes and remained at this pressure for 2 hours. They were then returned to normal barometric pressure at a rate of one foot per minute (72 minutes). This process was performed each day for six days a week for three weeks. The control group of animals (Group 1) was exposed to normal surface conditions for the same period of time.
Cytological and histological measurements. Pre- and post-flow cytometry (FACS) analysis was performed on samples of orbital blood from 10 animals in each group labeled with anti-mouse CD4/CD8 fluorescence markers. Animals were anesthetized using methoxyflurane and blood was collected with a heparinized Pasteur pipette. Lymphocytes were stained with anti CD4-PE and anti CD8-FITC (Pharmingen) for 15 minutes. Erythrocytes were hemolyzed in lysis solution (Becton Dickinson) for 10 minutes, washed with PBS/azide solution, centrifuged and the supernatant was discarded. The pellet was fixed with 1% formalin in PBS, and stored at 4° C. until cytometry (Becton Dickinson FACS Scan; San Jose, Calif.). At the end of the three-week treatment period, blood samples were obtained and the mice were sacrificed. The lymph nodes, spleen, thymus, liver and brain tissue were collected immediately placed in 10% formalin. Following fixation and routine paraffin processing, 4 μm sections of lymph nodes were obtained after cutting randomly selected nodes through the center parallel to the long axis of the node. The slides were stained with hematoxylin and eosin (H&E) and reviewed by a pathologist that was blinded to knowledge of animal treatment groups. The presence of secondary follicles and paracortical expansion were quantitated for each animal as a percentage of lymph nodes. As medullary sinuses were not present in every lymph node profile, the presence of medullary sinus hypocellularity was quantitated as a percentage of lymph nodes which contained sinuses. In addition the approximate surface area of the cut node was computed from the product of the length and width in its maximum dimensions. The remaining tissues were examined qualitatively for pathological changes.
FIG. 6 is bar chart showing the average size of lymph nodes taken from the mice of different groups in the study discussed above. The lymph nodes were taken from the cervical, thoracic, and abdominal regions and fixed in 10% formalin. The nodes were then sectioned through the center of the long axis, and area was computed as the product of length times width.

[3] = listed as Mixtures with enriched nitrogen

Compound: [N-]=[N+]=O [nitrous oxide]
- anesthetic effect ([1]; 90% N2O and 10% O2 at atmospheric pressure (760 mmHg)): many subjects do not even lose consciousness
- anesthetic effect ([1]; 1520 mmHg or 2 atmospheres absolute (1368 mmHg N2O+125 mmHg oxygen)): deep anesthesia

Compound: O=O [O2, oxygen, reference compound]
- mice that died during the treatment period [2]: Two
- mice that died during the treatment period ([2]; listed as oxygen): two
- survival rate at 21 days [2]: 83%
- post-treatment CD4/CD8 ratio [2]: significantly lower
- post-treatment CD4/CD8 ratio ([2]; listed as hyperbaric oxygen): significantly decreased
- post-treatment CD4/CD8 ratio ([2]; listed as oxygen): significantly lower
- overall effect relative to control conditions ([2]; listed as Oxygen): significant negative effect
- overall effect relative to control conditions ([2]; listed as hyperbaric oxygen): no beneficial effect
- overall effect relative to control conditions ([2]; listed as oxygen): fared worse than the control group
- hypocellular medullary sinuses of lymph nodes [2]: significantly more hypocellular sinuses
- spleen size [2]: much bigger
- lymph node size [2]: much bigger
- post-treatment CD4 count (FACS) ([2]; listed as hyperbaric oxygen): significantly decreased

Compound: N#N [N2, nitrogen]
- survival rate at 21 days [2]: 100%
- post-treatment CD4/CD8 ratio [2]: significantly higher
- post-treatment CD4/CD8 ratio [2, 3]: increased
- hypocellular medullary sinuses of lymph nodes [2]: significantly more hypocellular sinuses were present in the control group and the O2 group than in the N2 and Air groups; also recorded: significant differences in sinus cellularity
- lymph node architecture [2]: improved lymph node architecture
- lymph node architecture [2, 3]: preserved
- spleen size [2]: smaller by about one third
- lymph node size [2]: smaller
- lymph node size ([2]; listed as hyperbaric N2): significantly attenuated the lymphadenopathy
- lymph node size ([2]; listed as nitrogen): significant reduction
- number of nodes with paracortical expansion ([2]; lymph node histology): reduction
- number of nodes with secondary follicles ([2]; lymph node histology): reduction
- number of sinuses with histiocytes ([2]; lymph node histology): increase
- post-treatment CD4 count (FACS) [2]: increased and were significantly higher than post-treatment CD4 count in control animals
- post-treatment CD4 count (FACS) ([2]; listed as hyperbaric N2): improved CD4 counts
- physical condition / grooming [2]: better grooming
- physical condition / grooming [2, 3]: improved
- physical condition / grooming ([2]; listed as nitrogen): appeared physically more healthy; also recorded: improved physical condition

Source: patent publication US20090142416A1, “Methods for the treatment of HIV and other viruses” (priority 2003, published 2009)
